Experimental findings from patent US20240284906A1, “HERBICIDAL COMPOSITIONS CONTAINING CINMETHYLINE AND ETHOFUMESATE” (BAYER AKTIENGESELLSCHAFT, priority 2021, published 2024) are described below.

The test system of assay [1] is Lolium rigidum. The assay is described as follows: Post-emergence weed control, pot trial. Type of assay: in vivo. The conditions noted are these: post-emergence (BBCH 11-12), 27 DAA, scale 0-100. Here is the method:
(§1) The following plant species were selected for the tests:
(§2) The seeds of the abovementioned biotypes were sown in 8 cm pots (LSI; pH 7.4; % C org 2.2). The temperature was kept at about 23°/15° C. day/night. After the herbicides had been applied (300 l water/ha), the pots were irrigated from beneath as required. Two trials were conducted. In a pre-emergence trial, the herbicides were applied directly after sowing at the BBCH 00 growth stage. In a post-emergence trial, the herbicides were deployed at the BBCH 11-12 growth stage.
(§3) The active herbicidal ingredient cinmethylin was used as commercial emulsifiable concentrate (EC) LUMIMAX. Ethofumesate was used in the form of the commercial suspension concentrate (SC) Nortron. A methylated seed oil (Mero) was added to the spray liquids in an amount of 1 l/ha in order to assure good retention characteristics.
(§4) The percentage of weed control (2 repetitions) was rated 27 days after the application of herbicide (DAA) on a scale of 0-100. A rating of 0 means no control, and 100 means complete control.
(§5) According to Colby, synergistic effects of active herbicidal ingredients are indicated when the measured efficacy is higher than that expected, which is calculated by its formula for 2-substance mixtures: EC=A+B−(A×B)/100

For assay [2], the system named is Abuthilon theophrasti. Briefly: Post-emergence weed control, pot trial. Type of assay: in vivo. The conditions noted are these: post-emergence (BBCH 11-12), 27 DAA, scale 0-100. Here is the method:
as §1, §2, §3, §4, §5

Assay [3] has as its system Alopecurus myosuroides. Briefly: Post-emergence weed control, pot trial. Type of assay: in vivo. The conditions noted are these: post-emergence (BBCH 11-12), 27 DAA, scale 0-100. The protocol:
as §1, §2, §3, §4, §5

For assay [4], the system named is MATIN. Briefly: Pre-emergence weed control, pot trial. Type of assay: in vivo, Matricaria inodora. The conditions noted are these: pre-emergence (BBCH 00), 27 DAA, scale 0-100. Here is the method:
as §1, §2, §3, §4, §5

In assay [5] the test system is Veronica persica. The assay is described as follows: Pre-emergence weed control, pot trial. The settings on record: pre-emergence (BBCH 00), 27 DAA, scale 0-100. Type of assay: in vivo. Here is the method: as §1, §2, §3, §4, §5
The test system of assay [6] is Avena fatua. Briefly: Pre-emergence weed control, pot trial. Type of assay: in vivo. The settings on record: pre-emergence (BBCH 00), 27 DAA, scale 0-100. Here is the method: as §1, §2, §3, §4, §5
Assay [7] deals with MATIN. Briefly: Post-emergence weed control, pot trial. Type of assay: in vivo, Matricaria inodora. The conditions noted are these: post-emergence (BBCH 11-12), 27 DAA, scale 0-100. Here is the method: as §1, §2, §3, §4, §5

The structures appear in SMILES notation.

For `Cc1ccccc1CO[C@@H]1C[C@]2(C(C)C)CC[C@@]1(C)O2` (racemic) [Cinmethylin, (+/−)-2-exo-(2-methylbenzyloxy)-1-methyl-4-isopropyl-7-oxabicyclo[2.2.1]heptane], the “Efficacy (percentage of weed control) LOLRI” value in assay [1] (100 g ai/ha) stood at 63%. Moreover, the “Efficacy (percentage of weed control) ABUTH” value in assay [2] (100 g ai/ha) is reported as 35%. Also, the “Efficacy (percentage of weed control) ALOMY” value in assay [3] (100 g ai/ha) amounted to 78%. Further, the “Efficacy (percentage of weed control) MATIN” value in assay [4] (50 g ai/ha) was found to be 70%; in assay [7] (25 g ai/ha), 20%. In addition, in assay [5] (50 g ai/ha), the “Efficacy (percentage of weed control) VERPE” value was 20%. The “Efficacy (percentage of weed control) AVEFA” value in assay [6] (100 g ai/ha) is listed as 70%.

Turning to `CCOC1Oc2ccc(OS(C)(=O)=O)cc2C1(C)C` (centres unmarked) [Ethofumesate], in assay [1] (20 g ai/ha), the “Efficacy (percentage of weed control) LOLRI” value is on record as 0%. In addition, the “Efficacy (percentage of weed control) ABUTH” value in assay [2] (20 g ai/ha) came out at 0%. In assay [3] (20 g ai/ha), the “Efficacy (percentage of weed control) ALOMY” value came out at 0%. Moreover, the “Efficacy (percentage of weed control) MATIN” value is 0% in assay [4] (10 g ai/ha) and 10% in assay [7] (50 g ai/ha). For the same molecule, in assay [5] (10 g ai/ha), the “Efficacy (percentage of weed control) VERPE” value came out at 0%. Further, the “Efficacy (percentage of weed control) AVEFA” value in assay [6] (20 g ai/ha) was 0%.
